US8969554B2, “6-acyl-1,2,4-triazine-3,5-dione derivative and herbicides” (Kumiai Chemical Industry Co., Ltd., priority 2010, dated 2015)

What was measured:
Type in all cases: in vivo
Echinochloa crus-galli [1] = experiment: Herbicidal activity by field soil treatment (Test example 2); set-up: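 index 0 to 10 in 10% steps of herbicidal effect with 10 meaning complete death and 0 below 10%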; conditions: 1000 g effective component per hectare, day 21 after the treatment
Outline: (§1)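 Herbicidal effect is rated by fixed criteria on day 21 post-treatment. Before that, pots of field soil holding freshly sown, soil-covered seeds receive a surface spray of diluted wettable powder (1000 g per hectare effective component, spray volume 1000 liters per hectare) and are kept in a greenhouse.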

A. retroflexus [2] = experiment: as above; set-up: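 index 0 to 10 in 10% steps of herbicidal effect with 10 meaning complete death and 0 below 10%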; conditions: 1000 g effective component per hectare, day 21 after the treatment
Outline: as §1

Indian millet [3] = experiment: as above; set-up: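 index 0 to 10 in 10% steps of herbicidal effect with 10 meaning complete death and 0 below 10%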; conditions: 1000 g effective component per hectare, day 21 after the treatment
Outline: as §1

Setaria viridis = experiment: Herbicidal activity by field foliage treatment (Test example 3); conditions: 1000 g effective component per hectare, day 14 after the treatment;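 note: index 0 to 10 in 10% steps of herbicidal effect with 10 meaning complete death and 0 below 10%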
Experimental: Test example 3 Test for Determining Herbicidal Activity by Field Foliage Treatment A 80 cm^2 wide plastic pot was filled with a field soil and seeds of each of Indian millet and A. retroflexus were sowed and then incubated for 2 weeks in a green house. The wettable powder produced with reference to the Formulation example 1 was diluted water, and applied from the air to entire body of the plant as foliage treatment by using a small sprayer in an amount of 1000 liters per hectare so that the effective component is 1000 g per hectare. After that, the plants were cultivated in a greenhouse, and on day 14 after the treatment, evaluation was made by the criteria described in Table 72 for determining the herbicidal effects.

Scirpus juncoides Rocxb. = experiment: Herbicidal activity by paddy field soil treatment (Test Example 1); set-up: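 index 0 to 10 in 10% steps of herbicidal effect with 10 meaning complete death and 0 below 10%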; conditions: applied on water surface, 1000 g of effective component per hectare, day 21 after the treatment
Outline: (§2)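 Herbicidal effect is rated on a graded scale 21 days after treatment. Treatment: wettable powder diluted in water, applied onto the flood water (3 cm deep) of sown paddy-soil pots on the day after sowing, 1000 g active component per hectare, greenhouse cultivation.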

Monochoria vaginalis = experiment: as above; set-up: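 index 0 to 10 in 10% steps of herbicidal effect with 10 meaning complete death and 0 below 10%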; conditions: 1000 g of effective component per hectare, evaluated on day 21 after the treatment, criteria of Table 72
Outline: as §2

Echinochloa oryzicola = experiment: as above; set-up: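 index 0 to 10 in 10% steps of herbicidal effect with 10 meaning complete death and 0 below 10%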; conditions: 1000 g of effective component per hectare, evaluated on day 21 after the treatment, criteria of Table 72
Outline: as §2

Echinochloa crus-galli [4] = experiment: Herbicidal activity by field foliage treatment (Test example 3); set-up: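 index 0 to 10 in 10% steps of herbicidal effect with 10 meaning complete death and 0 below 10%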; conditions: 1000 g effective component per hectare, day 14 after the treatment
Outline: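 Potted field-soil plants grown 2 weeks in a greenhouse were sprayed over the whole foliage with diluted wettable powder at 1000 L/ha, delivering 1000 g active ingredient per hectare. Herbicidal effect scored by visual criteria 14 days after treatment.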

A. retroflexus [5] = experiment: as above; set-up: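 index 0 to 10 in 10% steps of herbicidal effect with 10 meaning complete death and 0 below 10%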; conditions: 1000 g effective component per hectare, day 14 after the treatment
Outline: (§3)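 Herbicidal effect is rated on a scoring scale 14 days after treatment. Seedlings raised 2 weeks in field soil under glass receive an overall foliar spray of wettable powder diluted in water, giving 1000 g active component per hectare.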

Indian millet [6] = experiment: as above; set-up: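 index 0 to 10 in 10% steps of herbicidal effect with 10 meaning complete death and 0 below 10%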; conditions: 1000 g effective component per hectare, day 14 after the treatment
Outline: as §3

| Structure (SMILES) | herbicidal effect index, Echinochloa crus-galli (Echinochloa crus-galli [1]) | herbicidal effect index, Amaranthus retroflexus (A. retroflexus [2]) | herbicidal effect index, Abutilon theophrasti (Indian millet [3]) | herbicidal effect index, Setaria viridis (Setaria viridis) | herbicidal effect index, S. juncoides Rocxb. (Scirpus juncoides Rocxb.) | Herbicidal effects index number, Monochoria vaginalis (Monochoria vaginalis) | Herbicidal effects index number, Echinochloa oryzicola (Echinochloa oryzicola) | herbicidal effect index, Echinochloa crus-galli (Echinochloa crus-galli [4]) | herbicidal effect index, Amaranthus retroflexus (A. retroflexus [5]) | herbicidal effect index, Abutilon theophrasti (Indian millet [6]) |
| --- | --- | --- | --- | --- | --- | --- | --- | --- | --- | --- |
| Cc1ccc(Cl)cc1-n1c(=O)c(C(=O)C2=C(O)CCCC2=O)nn(C)c1=O [I-138] | 9 | 10 | 9 | 8 | 10 | 10 | 10 | 8 | 10 | 9 |
| Cn1nc(C(=O)C2=C(O)CCCC2=O)c(=O)n(-c2cc(Cl)c(Cl)c(Cl)c2)c1=O [I-465] | – | 10 | 10 | 10 | 10 | 10 | 10 | 8 | 10 | 10 |
| CC(C)N(c1ccccc1)n1c(=O)c(C(=O)O)nn(C)c1=O [V-369] | 7 | 7 | 7 | 7 | 10 | 10 | 10 | 9 | 9 | 8 |
| Cn1nc(C(=O)O)c(=O)n(CC(=O)C(C)(C)C)c1=O [V-362] | – | 7 | – | 9 | 10 | 10 | 10 | 9 | 10 | 10 |
| COc1c(F)cc(-n2c(=O)c(C(=O)C3=C(O)CCCC3=O)nn(C)c2=O)cc1F [Compound I-167] | 8 | 10 | 10 | 8 | – | – | – | 10 | 10 | 10 |
| Cc1cc(Cl)cc(-n2c(=O)c(C(=O)C3=C(O)CCCC3=O)nn(C)c2=O)c1 [I-126] | – | 10 | 10 | 7 | 10 | 10 | 10 | 9 | 10 | 9 |
| CSCn1c(=O)c(C(=O)C2=C(O)CCCC2=O)nn(C)c1=O [I-43] | 10 | 10 | – | 8 | 10 | 10 | 10 | 8 | 10 | 9 |
| Cn1nc(C(=O)C2=C(O)CCCC2=O)c(=O)n(CC(=O)C(C)(C)C)c1=O [I-468] | – | 7 | – | 9 | 10 | 10 | 10 | 9 | 10 | 10 |
| Cn1nc(C(=O)C2=C(O)CC(C)(C)CC2=O)c(=O)n(-c2ccccc2)c1=O [VI-6] | – | 10 | 9 | 10 | 10 | 10 | 10 | 8 | 10 | 10 |
